Earlier results as cited in patent publication US20020045168A1, “Computer based modeling system” (priority 2000, published 2002).

Columns and labels:
Details in all cases: experimental, native ligand
[1] = system: AMP aptamer (1am0)
[2] = system: Arg aptamer (1koc)
[3] = system: citruline aptamer (1kod)
[4] = system: FMN aptamer (1fmn)
[5] = system: tobramycin aptamer (2tob)

Nc1ncnc2c1ncn2[C@@H]1O[C@H](COP(=O)(O)O)[C@@H](O)[C@H]1O [AMP, adenosine monophosphate]
Exptl ΔGbind [1]: −28.5 kJmol^−1

N=C(N)NCCC[C@H](N)C(=O)O [Arginine, arginine]
Exptl ΔGbind [2]: −28.5 kJmol^−1

NC(=O)NCCC[C@H](N)C(=O)O [Citruline, citruline]
Exptl ΔGbind [3]: −28.5 kJmol^−1

Cc1cc2nc3c(=O)[nH]c(=O)nc-3n(C[C@H](O)[C@H](O)[C@H](O)COP(=O)(O)O)c2cc1C [Fmn, flavin mononucleotide]
Exptl ΔGbind [4]: −30.1 kJmol^−1

NC[C@H]1O[C@H](O[C@H]2[C@H](O)[C@@H](O[C@H]3O[C@H](CO)[C@@H](O)[C@H](N)[C@H]3O)[C@H](N)C[C@@H]2N)[C@H](N)C[C@@H]1O [Tobramycin, tobramycin]
Exptl ΔGbind [5]: −45.2 kJmol^−1
